From patent US20070093520A1, “Method of treatment of diarrhea-predominant irritable bowel syndrome in a subject” (priority 2005, published 2007)

Tested on: diarrhea-predominant IBS subjects
Experiment: 3007 Study: open-label 52-week safety study, adverse events and withdrawals
Settings: Overall

Compound: Cc1nccn1C[C@H]1CCc2c(c3cccc4c3n2CCC4)C1=O [cilansetron, (R)-(−)-4,5,6,8,9,10-hexahydro-10-[(2-methyl-1H-imidazol-1-yl)methyl]-11H-pyrido-[3,2,1-jk]-carbazol-11-one]
- TEAE: Sexual Desire Disorders: 1 (<1%) n (%)
- TEAE: Sick Sinus Syndrome: 1 (<1%) n (%)
- TEAE: Sinus Arrhythmia: 1 (<1%) n (%)
- TEAE: Sinus Congestion: 8 (1%) n (%)
- TEAE: Sinus Headache: 3 (<1%) n (%)
- TEAE: Sinusitis Acute NOS: 1 (<1%) n (%)
- TEAE: Sinusitis NOS: 37 (7%) n (%)
- TEAE: Site Specific Injuries NEC: 6 (1%) n (%)
- TEAE: Skeletal and Cardiac Muscle Analyses: 27 (5%) n (%)
- TEAE: Skin Disorder NOS: 1 (<1%) n (%)
- TEAE: Skin Fungal Infection NOS: 1 (<1%) n (%)
- TEAE: Skin Infection NOS: 1 (<1%) n (%)
- TEAE: Skin Injuries and Mechanical Dermatoses: 3 (<1%) n (%)
- TEAE: Skin Lesion NOS: 3 (<1%) n (%)
- TEAE: Skin Neoplasms Benign: 1 (<1%) n (%)
- TEAE: Skin Neoplasms Malignant and Unspecified (Excl Melanoma): 6 (1%) n (%)
- TEAE: Skin Structures and Soft Tissue Infections: 3 (<1%) n (%)
- TEAE: Skin Ulcer: 1 (<1%) n (%)
- TEAE: Skin and Subcutaneous Tissue Disorders: 39 (7%) n (%)
- TEAE: Skin and Subcutaneous Tissue Ulcerations: 1 (<1%) n (%)
- TEAE: Sleep Apnoea Syndrome: 2 (<1%) n (%)
- TEAE: Sleep Apnoeas: 2 (<1%) n (%)
- TEAE: Social Circumstances: 1 (<1%) n (%)
- TEAE: Soft Tissue Disorders NEC: 2 (<1%) n (%)
- TEAE: Soft Tissue Neoplasms Benign NEC: 3 (<1%) n (%)
- TEAE: Somnolence: 2 (<1%) n (%)
- TEAE: Speech and Language Abnormalities: 1 (<1%) n (%)
- TEAE: Spinal Cord and Nerve Root Disorders NEC: 1 (<1%) n (%)
- TEAE: Spondylitic Myelopathy: 1 (<1%) n (%)
- TEAE: Spondyloarthropathies: 1 (<1%) n (%)
- TEAE: Spondylosis: 1 (<1%) n (%)
- TEAE: Staphylococcal Infection NOS: 1 (<1%) n (%)
- TEAE: Staphylococcal Infections: 1 (<1%) n (%)
- TEAE: Status Epilepticus: 1 (<1%) n (%)
- TEAE: Stomach Discomfort: 1 (<1%) n (%)
- TEAE: Strabismus: 1 (<1%) n (%)
- TEAE: Streptococcal Infection NOS: 1 (<1%) n (%)
- TEAE: Streptococcal Infections: 8 (1%) n (%)
- TEAE: Stress Fracture: 1 (<1%) n (%)
- TEAE: Stress Incontinence: 1 (<1%) n (%)
- TEAE: Stress Symptoms: 1 (<1%) n (%)
- TEAE: Structural and Other Bile Duct Disorders: 1 (<1%) n (%)
- TEAE: Sugar Intolerance (Excl Glucose Intolerance): 1 (<1%) n (%)
- TEAE: Suicidal Ideation: 1 (<1%) n (%)
- TEAE: Suicidal and Self-Injurious Behaviour: 1 (<1%) n (%)
- TEAE: Supraventricular Arrhythmias: 4 (<1%) n (%)
- TEAE: Supraventricular Tachycardia: 1 (<1%) n (%)
- TEAE: Surgical and Medical Procedures: 2 (<1%) n (%)
- TEAE: Sweating Increased: 2 (<1%) n (%)
- TEAE: Swelling Face: 1 (<1%) n (%)
- TEAE: Tachycardia NOS: 1 (<1%) n (%)
- TEAE: Temporomandibular Joint Disorder NOS: 1 (<1%) n (%)
- TEAE: Tenderness NOS: 1 (<1%) n (%)
- TEAE: Tendon Disorders: 3 (<1%) n (%)
- TEAE: Tendonitis: 2 (<1%) n (%)
- TEAE: Tension Headaches: 1 (<1%) n (%)
- TEAE: Thoracic Cage Fractures and Dislocations: 1 (<1%) n (%)
- TEAE: Thrombocytopenia: 1 (<1%) n (%)
- TEAE: Thrombocytopenias: 1 (<1%) n (%)
- TEAE: Thrombophlebitis Superficial: 1 (<1%) n (%)
- TEAE: Thyroid Disorders NEC: 1 (<1%) n (%)
- TEAE: Thyroid Hypofunction Disorders: 2 (<1%) n (%)
- TEAE: Thyroid Neoplasms: 1 (<1%) n (%)
- TEAE: Thyroid Nodule: 1 (<1%) n (%)
- TEAE: Tinea Cruris: 1 (<1%) n (%)
- TEAE: Tinea Infections: 2 (<1%) n (%)
- TEAE: Tinea Pedis: 1 (<1%) n (%)
- TEAE: Tinnitus: 1 (<1%) n (%)
- TEAE: Tissue Enzyme Analyses NEC: 3 (<1%) n (%)
- TEAE: Tongue Coated: 1 (<1%) n (%)
- TEAE: Tongue Signs and Symptoms: 1 (<1%) n (%)
- TEAE: Tooth Abscess: 7 (1%) n (%)
- TEAE: Tooth Disorder NOS: 1 (<1%) n (%)
- TEAE: Tooth Impacted: 1 (<1%) n (%)
- TEAE: Tooth Infection: 2 (<1%) n (%)
- TEAE: Toothache: 3 (<1%) n (%)
- TEAE: Total Fluid Volume Decreased: 2 (<1%) n (%)
- TEAE: Total Number of Subjects with at Least One TEAE: 437 (82%) n (%)
- TEAE: Transient Global Amnesia: 1 (<1%) n (%)
- TEAE: Tremor: 2 (<1%) n (%)
- TEAE: Tremor (Excl Congenital): 2 (<1%) n (%)
- TEAE: Trigger Finger: 1 (<1%) n (%)
- TEAE: Triglyceride Analyses: 10 (2%) n (%)
- TEAE: Tympanic Membrane Disorder NOS: 1 (<1%) n (%)
- TEAE: Tympanic Membrane Disorders (Excl Infections): 1 (<1%) n (%)
- TEAE: Umbilical Hernia NOS: 1 (<1%) n (%)
- TEAE: Umbilical Hernias: 1 (<1%) n (%)
- TEAE: Upper Limb Fractures and Dislocations: 1 (<1%) n (%)
- TEAE: Upper Respiratory Tract Infection NOS: 26 (5%) n (%)
- TEAE: Upper Respiratory Tract Infections - Pathogen Class Unspecified: 61 (11%) n (%)
- TEAE: Upper Respiratory Tract Signs and Symptoms: 7 (1%) n (%)
- TEAE: Urinalysis NEC: 16 (3%) n (%)
- TEAE: Urinary Abnormalities: 6 (1%) n (%)
- TEAE: Urinary Frequency: 3 (<1%) n (%)
- TEAE: Urinary Incontinence: 1 (<1%) n (%)
- TEAE: Urinary Retention: 1 (<1%) n (%)
- TEAE: Urinary Tract Infection NOS: 26 (5%) n (%)
- TEAE: Urinary Tract Infections: 29 (5%) n (%)
- TEAE: Urinary Tract Lithiasis (Excl Renal): 1 (<1%) n (%)
- TEAE: Urinary Tract Signs and Symptoms NEC: 1 (<1%) n (%)
- TEAE: Urine Abnormal NOS: 1 (<1%) n (%)
- TEAE: Urine Analysis Abnormal NOS: 1 (<1%) n (%)
- TEAE: Urine Bilirubin Increased: 1 (<1%) n (%)
- TEAE: Urine Ketone Body Present: 5 (<1%) n (%)
- TEAE: Urine Leukocyte Esterase Positive: 5 (<1%) n (%)
- TEAE: Urobilin Urine Present: 1 (<1%) n (%)
- TEAE: Urticaria NOS: 3 (<1%) n (%)
- TEAE: Urticarias: 3 (<1%) n (%)
- TEAE: Uterine Disorders NEC*: 2 (<1%) n (%)
- TEAE: Uterine Fibroids*: 1 (<1%) n (%)
- TEAE: Uterine Neoplasms Benign*: 1 (<1%) n (%)
- TEAE: Uterine Neoplasms*: 2 (<1%) n (%)
- TEAE: Uterine Polyp NOS*: 2 (<1%) n (%)
- TEAE: Vaginal Cyst*: 1 (<1%) n (%)
- TEAE: Vaginal Lesion*: 1 (<1%) n (%)
- TEAE: Varicose Vein Ruptured: 2 (<1%) n (%)
- TEAE: Varicose Veins Non-Site Specific: 2 (<1%) n (%)
- TEAE: Vascular Auscultatory Investigations: 2 (<1%) n (%)
- TEAE: Vascular Disorders: 21 (4%) n (%)
- TEAE: Vascular Hypertensive Disorders NEC: 15 (3%) n (%)
- TEAE: Vascular Hypotensive Disorders: 1 (<1%) n (%)
- TEAE: Vascular Tests NEC (Incl Blood Pressure): 5 (<1%) n (%)
- TEAE: Vasovagal Attack: 1 (<1%) n (%)
- TEAE: Ventricular Arrhythmias and Cardiac Arrest: 2 (<1%) n (%)
- TEAE: Ventricular Extrasystoles: 1 (<1%) n (%)
- TEAE: Vertigo: 2 (<1%) n (%)
- TEAE: Viral Infection NOS: 4 (<1%) n (%)
- TEAE: Viral Infections NEC: 15 (3%) n (%)
- TEAE: Visual Acuity Reduced: 1 (<1%) n (%)
- TEAE: Vitreous Disorder NOS: 1 (<1%) n (%)
- TEAE: Vomiting NOS: 18 (3%) n (%)
- TEAE: Vulvovaginal Cysts and Neoplasms*: 1 (<1%) n (%)
- TEAE: Vulvovaginal Dryness*: 2 (<1%) n (%)
- TEAE: Vulvovaginal Signs and Symptoms*: 3 (<1%) n (%)
- TEAE: Weight Decreased: 2 (<1%) n (%)
- TEAE: Weight Increased: 6 (1%) n (%)
- TEAE: Wheezing: 1 (<1%) n (%)
- TEAE: White Blood Cell Analyses: 5 (<1%) n (%)
- TEAE: White Blood Cell Count Decreased: 1 (<1%) n (%)
- TEAE: White Blood Cells Urine Positive: 1 (<1%) n (%)
- TEAE leading to permanent discontinuation: Abdominal Distension (N=536): 4 (<1%) n (%)
- TEAE leading to permanent discontinuation: Abdominal Pain Aggravated (N=536): 1 (<1%) n (%)
- TEAE leading to permanent discontinuation: Abdominal Pain Lower (N=536): 2 (<1%) n (%)
- TEAE leading to permanent discontinuation: Abdominal Pain NOS (N=536): 11 (2%) n (%)
- TEAE leading to permanent discontinuation: Abdominal Pain Upper (N=536): 4 (<1%) n (%)
- TEAE leading to permanent discontinuation: Alanine Aminotransferase Increased (N=536): 1 (<1%) n (%)
- TEAE leading to permanent discontinuation: Angina Pectoris (N=536): 1 (<1%) n (%)
- TEAE leading to permanent discontinuation: Appendicitis (N=536): 1 (<1%) n (%)
- TEAE leading to permanent discontinuation: Asthma Aggravated (N=536): 1 (<1%) n (%)
- TEAE leading to permanent discontinuation: Asthma NOS (N=536): 1 (<1%) n (%)
- TEAE leading to permanent discontinuation: Back Pain (N=536): 4 (<1%) n (%)
- TEAE leading to permanent discontinuation: Bladder Prolapse (N=536): 1 (<1%) n (%)
- TEAE leading to permanent discontinuation: Blood Bilirubin Increased (N=536): 1 (<1%) n (%)
- TEAE leading to permanent discontinuation: Blood Pressure Increased (N=536): 1 (<1%) n (%)
- TEAE leading to permanent discontinuation: Blood Urine Present (N=536): 1 (<1%) n (%)
- TEAE leading to permanent discontinuation: Bone Neoplasm Malignant (N=536): 1 (<1%) n (%)
- TEAE leading to permanent discontinuation: Cardiac Disorders (N=536): 1 (<1%) n (%)
- TEAE leading to permanent discontinuation: Chest Discomfort (N=536): 1 (<1%) n (%)
- TEAE leading to permanent discontinuation: Chest Pain (N=536): 1 (<1%) n (%)
- TEAE leading to permanent discontinuation: Chest Wall Pain (N=536): 1 (<1%) n (%)
- TEAE leading to permanent discontinuation: Colitis Ischaemic (N=536): 1 (<1%) n (%)
- TEAE leading to permanent discontinuation: Constipation (N=536): 28 (5%) n (%)
- TEAE leading to permanent discontinuation: Cough (N=536): 1 (<1%) n (%)
- TEAE leading to permanent discontinuation: Dehydration (N=536): 1 (<1%) n (%)
- TEAE leading to permanent discontinuation: Depression (N=536): 1 (<1%) n (%)
- TEAE leading to permanent discontinuation: Diarrhoea Aggravated (N=536): 2 (<1%) n (%)
- TEAE leading to permanent discontinuation: Diarrhoea Haemorrhagic (N=536): 1 (<1%) n (%)
- TEAE leading to permanent discontinuation: Diarrhoea NOS (N=536): 6 (1%) n (%)
- TEAE leading to permanent discontinuation: Dizziness (N=536): 2 (<1%) n (%)
